Assay results as given in patent US20050282755A1, “Compositions having antimicrobial activity and uses thereof” (priority 2004, published 2005).
Values after ≈ are worked out from the molar mass of the structure shown. Non-standard residues stand in square brackets, D forms with d. Residues, ends and D or L forms follow the SMILES beside them. *: point of attachment. Stearoyl = CCCCCCCCCCCCCCCCCC(=O)*; Lauroyl = CCCCCCCCCCCC(=O)*

How the values were obtained:
Type in all cases: cell-based
[1] = test system: Staphylococcus epidermidis ATCC 12228; test: MIC, NCCLS M7-A6 broth microdilution (Table 9, no superscript); details: ATCC 12228
Experimental: (§1) Cation-adjusted Mueller Hinton broth was used in the broth microdilution method. In brief, a log-phase bacterial suspension was used to inoculate wells of a 96-well plate so that the final inoculum for each well contained 5×10^5 to 1×10^6 CFU/milliliter. […] Plates were incubated overnight at 37° C. The lowest concentration of peptide that contained no visible growth as evidenced by a lack of turbidity when compared to the control (no peptide) was determined as the MIC. Unless otherwise noted, MIC values listed in Table 9 utilized this method of MIC determination.

[2] = test system: Pseudomonas aeruginosa ATCC 27853; test: as above; details: ATCC 27853
Experimental: as §1

[3] = test system: Salmonella dublin (Lane); test: as above
Experimental: as §1

[4] = test system: Escherichia coli ATCC 25922; test: as above; details: ATCC 25922
Experimental: as §1

[5] = test system: Staphylococcus aureus ATCC 29213; test: MIC, NCCLS M7-A6 broth microdilution, cation-adjusted Mueller Hinton broth (Table 9, no superscript); details: ATCC 29213
Experimental: as §1

MIC S. epidermidis [1] [µg/mL]	MIC P. aeruginosa [2] [µg/mL]	MIC S. dublin [3] [µg/mL]	MIC E. coli [4] [µg/mL]	MIC S. aureus [5] [µg/mL]	Structure (SMILES)
8 (≈ 2.65 µM)	>64	16 (≈ 5.3 µM)	64 (≈ 21.2 µM)	32 (≈ 10.6 µM)	CCCCCCCCCCCC(=O)N[C@H](C(=O)N[C@@H](CCCNC(=N)N)C(=O)N[C@H](C(=O)N[C@@H](CO)C(=O)N[C@@H](CCCNC(=N)N)C(=O)N[C@H](C(=O)NCC(=O)N[C@@H](CCCNC(=N)N)C(=O)N[C@@H](CO)C(=O)N[C@@H](CCCNC(=N)N)C(=O)N[C@@H](Cc1c[nH]c2ccccc12)C(=O)N[C@@H](CCCNC(=N)N)C(=O)N[C@@H](CC(=O)O)C(=O)N[C@@H](Cc1c[nH]c2ccccc12)C(=O)N[C@@H](CO)C(=O)N[C@@H](CCCNC(=N)N)C(=O)N[C@@H](CC(N)=O)C(=O)N[C@@H](Cc1ccccc1)C(=O)N[C@@H](CCSC)C(=O)N[C@@H](CCCNC(=N)N)C(=O)N[C@@H](CC(C)C)C(=O)N[C@@H](CC(C)C)C(N)=O)[C@@H](C)O)C(C)C)[C@@H](C)O [Peptide 68] (Lauroyl-TRVSRTGRSRWRDWSRNFMRLL-NH2)
32 (≈ 10.8 µM)	>64	–	>64	–	CSCC[C@@H](NC(=O)[C@@H](Cc1ccccc1)NC(=O)[C@@H](CC(N)=O)NC(=O)[C@@H](CCCNC(=N)N)NC(=O)[C@@H](CO)NC(=O)[C@@H](Cc1c[nH]c2ccccc12)NC(=O)[C@@H](CC(=O)O)NC(=O)[C@@H](CCCNC(=N)N)NC(=O)[C@@H](Cc1c[nH]c2ccccc12)NC(=O)[C@@H](CCCNC(=N)N)NC(=O)[C@@H](CO)NC(=O)[C@@H](CCCNC(=N)N)NC(=O)CNC(=O)[C@H](NC(=O)[C@@H](CCCNC(=N)N)NC(=O)[C@@H](CO)NC(=O)[C@H](NC(=O)[C@@H](CCCNC(=N)N)NC(=O)[C@H](NC(C)=O)[C@H](C)O)C(C)C)[C@H](C)O)C(=O)N[C@H](CCCNC(=N)N)C(=O)N[C@H](C)C(=O)N[C@H](C)C(=O)N[C@@H](CCCCNC(C)=O)C(N)=O [Peptide 84, Ac-trvsrtgrsrwrdwsrnfmraaK(Ac)-NH2] (Ac-[dT][dR][dV][dS][dR][dT]G[dR][dS][dR][dW][dR][dD][dW][dS][dR][dN][dF][dM][dR][dA][dA]K(Ac)-NH2)
32 (≈ 10 µM)	>64	–	>64	–	CCCCCCCCCCCCCCCCCC(=O)N[C@@H](C(=O)N[C@H](CCCNC(=N)N)C(=O)N[C@@H](C(=O)N[C@H](CO)C(=O)N[C@H](CCCNC(=N)N)C(=O)N[C@@H](C(=O)NCC(=O)N[C@H](CCCNC(=N)N)C(=O)N[C@H](CO)C(=O)N[C@H](CCCNC(=N)N)C(=O)N[C@H](Cc1c[nH]c2ccccc12)C(=O)N[C@H](CCCNC(=N)N)C(=O)N[C@H](CC(=O)O)C(=O)N[C@H](Cc1c[nH]c2ccccc12)C(=O)N[C@H](CO)C(=O)N[C@H](CCCNC(=N)N)C(=O)N[C@H](CC(N)=O)C(=O)N[C@H](Cc1ccccc1)C(=O)N[C@H](CCSC)C(=O)N[C@H](CCCNC(=N)N)C(=O)N[C@H](C)C(=O)N[C@H](C)C(=O)N[C@@H](CCCCNC(C)=O)C(N)=O)[C@H](C)O)C(C)C)[C@H](C)O [Peptide 86, Stearyl-trvsrtgrsrwrdwsrnfmraaK(Ac)-NH2] (Stearoyl-[dT][dR][dV][dS][dR][dT]G[dR][dS][dR][dW][dR][dD][dW][dS][dR][dN][dF][dM][dR][dA][dA]K(Ac)-NH2)
